Laboratory results as given in BigSolDB 2.1.

C/C=C/C=C/C(=O)O
solubility (mole fraction)
Settings	285.15 K	289.15 K	293.15 K	298.15 K	303.15 K	308.15 K	312.65 K	318.15 K	323.15 K
in MTBE	0.0403	0.0439	0.0512	0.0577	0.0693	0.0785	0.093	0.109	0.121
in acetone	0.0476	0.0528	0.0613	0.0701	0.0871	0.0968	0.115	0.14	0.156
in acetonitrile	0.00625	0.00746	0.0098	0.0112	0.0149	0.0172	0.0196	0.0248	0.0306
in ethanol	0.0442	0.0488	0.0572	0.0643	0.0747	0.0872	0.101	0.121	0.143
in ethyl acetate	0.0266	0.0314	0.0357	0.0452	0.0542	0.0626	0.0713	0.0862	0.102
in isopropanol	0.0383	0.0444	0.053	0.0613	0.0684	0.0753	0.086	0.0965	0.103
in methanol	0.0328	0.0392	0.0457	0.0553	0.0643	0.0749	0.083	0.0934	0.106
in n-butanol	0.0619	0.0738	0.0844	0.0973	0.108	0.121	0.135	0.154	0.173
